Several values for one entry are separate records, joined by “and”; a condition that tells them apart may be missing. Identical values can stand only once. Toxic doses and inconclusive results are not listed. Non-standard residues stand in square brackets, D forms with d. Residues, ends and D or L forms follow the SMILES beside them. ξ: configuration not given here. *: point of attachment. Boc = CC(C)(C)OC(=O)*; ξM = CSCCC(N)C(=O)O

The subject of the experiment is BDF1 mice, P388 leukemia ip, median survival T/C. Kind of experiment: NCI In Vivo Anticancer Drug Screen. Data for tumor model P388 Leukemia (intraperitoneal) in B6D2F1 (BDF1) mice. To be noted: endpoint: median survival time, higher = longer survival. The gist of the method: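 Survival ratio, drug arm over vehicle arm, in mice with a transplanted tumour.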
Setting [1] is: dose: 50.0 mg/kg/injection, schedule: Q04DX003 (ip), vehicle: saline.
The mark [2] stands for this setting: dose: 50.0 mg/kg/injection, schedule: Q01DX009 (ip), vehicle: saline with Tween-80.
Where [3] appears, read: dose: 66.0 mg/kg/injection, schedule: Q01DX009 (ip), vehicle: saline with Tween-80.
The mark [4] stands for this setting: dose: 100.0 mg/kg/injection, schedule: Q01DX009 (ip), vehicle: saline with Tween-80.
Setting [5] is: dose: 150.0 mg/kg/injection, schedule: Q01DX009 (ip), vehicle: saline with Tween-80.
Where [6] appears, read: dose: 200.0 mg/kg/injection, schedule: Q01DX009 (ip), vehicle: saline with Tween-80.
The mark [7] stands for this setting: dose: 400.0 mg/kg/injection, schedule: Q01DX009 (ip), vehicle: saline with Tween-80.
[8] abbreviates: dose: 12.5 mg/kg/injection, schedule: Q01DX009 (ip), vehicle: Klucel (hydroxypropylcellulose) (HPC).
Where [9] appears, read: dose: 25.0 mg/kg/injection, schedule: Q01DX009 (ip), vehicle: Klucel (hydroxypropylcellulose) (HPC).
Where [10] appears, read: dose: 100.0 mg/kg/injection, schedule: Q01DX009 (ip), vehicle: Klucel (hydroxypropylcellulose) (HPC).
The mark [11] stands for this setting: dose: 100.0 mg/kg/injection, schedule: Q04DX003 (ip), vehicle: Klucel (hydroxypropylcellulose) (HPC).
Where [12] appears, read: dose: 200.0 mg/kg/injection, schedule: Q04DX003 (ip), vehicle: Klucel (hydroxypropylcellulose) (HPC).

Consider `CCOc1ccc(Nc2ncnc3nc[nH]c23)cc1CN(CCCl)CCCl`, for which the T/C is, setting by setting: (dose: 0.13 mg/kg/injection, schedule: Q04DX003 (ip), vehicle: saline) 106 % of control; (dose: 0.2 mg/kg/injection, schedule: Q04DX003 (ip), vehicle: saline) 117 % of control; (dose: 0.25 mg/kg/injection, schedule: Q01DX009 (ip), vehicle: saline) 118 % of control; (dose: 0.29 mg/kg/injection, schedule: Q04DX003 (ip), vehicle: saline) 196 % of control; (dose: 0.3 mg/kg/injection, schedule: Q04DX003 (ip), vehicle: saline) 121 % of control; (dose: 0.88 mg/kg/injection, schedule: Q04DX003 (ip), vehicle: saline) 165 % of control. The T/C was 154 % of control (dose: 1.0 mg/kg/injection, schedule: Q01DX009 (ip), vehicle: saline); 205 % of control (dose: 1.0 mg/kg/injection, schedule: Q04DX003 (ip), vehicle: saline); 172 % of control (dose: 2.0 mg/kg/injection, schedule: Q01DX009 (ip), vehicle: saline); 163 % of control (dose: 2.2 mg/kg/injection, schedule: Q01DX009 (ip), vehicle: saline); 155 % of control (dose: 3.0 mg/kg/injection, schedule: Q04DX003 (ip), vehicle: saline); 154 % of control (dose: 3.3 mg/kg/injection, schedule: Q01DX009 (ip), vehicle: saline).
In the case of `O=S(=O)(O)c1ccc(-c2ccc(S(=O)(=O)O)cc2)cc1` (tested in a mixture with another compound), the T/C is 200 % of control (dose: 21.0 mg/kg/injection, schedule: Q04DX003 (ip), vehicle: saline); 270 % of control (dose: 33.0 mg/kg/injection, schedule: Q04DX003 (ip), vehicle: saline); 300 % of control under setting [1]; 300 % of control (dose: 110.0 mg/kg/injection, schedule: Q04DX003 (ip), vehicle: saline).
For `CCOc1nc(N)c(C(N)=O)cc1C#N`, the T/C by setting is: (dose: 25.0 mg/kg/injection, schedule: Q01DX009 (ip), vehicle: saline with Tween-80) 105 % of control; under setting [2], 110 % of control; under setting [3], 92 % of control and 110 % of control; under setting [4], 150 % of control; under setting [5], 88 % of control and 95 % of control.
As for `COC(=O)C1(C)CCCC2(C)C1CCC13OCC(CC21)C(=C(C)C)C3OC(C)=O` (stereo not given), the T/C was 100 % of control under setting [4], 100 % of control under setting [6] and 90 % of control under setting [7].
On to `CSCCC(NC(=O)CNC(=O)OC(C)(C)C)C(=O)NCC(=O)O` (stereo not drawn) (Boc-Gly-[ξM]-Gly-OH), for which the T/C is 98 % of control (dose: 50.0 mg/kg/injection, schedule: Q01DX005 (ip), vehicle: saline with Tween-80); 95 % of control (dose: 100.0 mg/kg/injection, schedule: Q01DX005 (ip), vehicle: saline with Tween-80); 95 % of control (dose: 200.0 mg/kg/injection, schedule: Q01DX005 (ip), vehicle: saline with Tween-80).
For the compound `C[n+]1cccc2ccccc21`, the T/C by setting is: (dose: 12.5 mg/kg/injection, schedule: Q01DX009 (ip), vehicle: saline) 95 % of control; (dose: 12.5 mg/kg/injection, schedule: Q04DX003 (ip), vehicle: saline) 104 % of control; (dose: 25.0 mg/kg/injection, schedule: Q01DX009 (ip), vehicle: saline) 100 % of control and 105 % of control; (dose: 25.0 mg/kg/injection, schedule: Q04DX003 (ip), vehicle: saline) 104 % of control; (dose: 50.0 mg/kg/injection, schedule: Q01DX009 (ip), vehicle: saline) 100 % of control and 110 % of control; under setting [1], 109 % of control. For the same compound, for the setting “dose: 100.0 mg/kg/injection, schedule: Q01DX009 (ip), vehicle: saline”, the T/C is 109 % of control.
Consider `CC(C)=NNS(=O)(=O)c1ccccc1`, for which the T/C (dose: 50.0 mg/kg/injection, schedule: Q04DX003 (ip), vehicle: saline with Tween-80) is 95 % of control; the T/C (dose: 100.0 mg/kg/injection, schedule: Q04DX003 (ip), vehicle: saline with Tween-80) is 90 % of control; the T/C (dose: 200.0 mg/kg/injection, schedule: Q04DX003 (ip), vehicle: saline with Tween-80) was 95 % of control.
Consider `OCC(O)C(O)C(O)C(O)CO` (stereo not given), for which the T/C was 100 % of control (dose: 100.0 mg/kg/injection, schedule: Q01DX010 (ip), vehicle: carboxymethylcellulose (CMC)); 95 % of control (dose: 100.0 mg/kg/injection, schedule: Q01DX010 (ip), vehicle: saline); 100 % of control (dose: 400.0 mg/kg/injection, schedule: Q01DX010 (ip), vehicle: carboxymethylcellulose (CMC)); 105 % of control and 110 % of control (dose: 400.0 mg/kg/injection, schedule: Q01DX010 (ip), vehicle: saline).
Take `Cc1ccc(S[Si](Sc2ccc(C)cc2)(Sc2ccc(C)cc2)Sc2ccc(C)cc2)cc1`: the T/C is, setting by setting: (dose: 200.0 mg/kg/injection, schedule: Q04DX002 (ip), vehicle: saline with Tween-80) 92 % of control; (dose: 400.0 mg/kg/injection, schedule: Q04DX002 (ip), vehicle: saline with Tween-80) 100 % of control.
For `CCN(C)c1nc(N(C)CC)c2nc(N(C)CC)nc(N(C)CC)c2n1`, the T/C is 108 % of control (dose: 3.13 mg/kg/injection, schedule: Q01DX009 (ip), vehicle: Klucel (hydroxypropylcellulose) (HPC)); 99 % of control (dose: 6.25 mg/kg/injection, schedule: Q01DX009 (ip), vehicle: Klucel (hydroxypropylcellulose) (HPC)); 99 % of control under setting [8]; 106 % of control under setting [9].
For `CC(=O)NNc1ccc([N+](=O)[O-])cc1`, the T/C reads like this: under setting [10], 100 % of control; under setting [11], 105 % of control; (dose: 200.0 mg/kg/injection, schedule: Q01DX009 (ip), vehicle: Klucel (hydroxypropylcellulose) (HPC)) 90 % of control; under setting [12], 90 % of control; (dose: 400.0 mg/kg/injection, schedule: Q01DX009 (ip), vehicle: Klucel (hydroxypropylcellulose) (HPC)) 90 % of control; (dose: 400.0 mg/kg/injection, schedule: Q04DX003 (ip), vehicle: Klucel (hydroxypropylcellulose) (HPC)) 90 % of control.
For `C(=C\c1cccnc1)/c1ccncc1`, the T/C runs as follows: (dose: 66.0 mg/kg/injection, schedule: Q01DX009 (ip), vehicle: Klucel (hydroxypropylcellulose) (HPC)) 158 % of control; under setting [3], 108 % of control; under setting [10], 178 % of control; under setting [4], 94 % of control; under setting [11], 100 % of control; (dose: 150.0 mg/kg/injection, schedule: Q01DX009 (ip), vehicle: Klucel (hydroxypropylcellulose) (HPC)) 158 % of control. Moreover, the T/C under setting [5] was 108 % of control and the T/C under setting [12] is 86 % of control.
Consider `CC1(C)c2ccccc2C(C)(C(Cl)(Cl)Cl)c2ccc(Cl)cc21` (stereo not given), for which the T/C by setting is: under setting [2], 96 % of control; under setting [4], 99 % of control; under setting [6], 92 % of control; under setting [7], 97 % of control.
As to `C/C(=C/CC(=O)O)C(=O)O`, the T/C was 119 % of control (dose: 12.5 mg/kg/injection, schedule: Q04DX003 (ip), vehicle: water); 97 % of control (dose: 25.0 mg/kg/injection, schedule: Q04DX003 (ip), vehicle: water); 97 % of control (dose: 50.0 mg/kg/injection, schedule: Q04DX003 (ip), vehicle: water); 103 % of control (dose: 100.0 mg/kg/injection, schedule: Q04DX003 (ip), vehicle: water); 122 % of control (dose: 200.0 mg/kg/injection, schedule: Q04DX003 (ip), vehicle: water).
As to `CCC1CCCCN1C(=S)N/N=C(\C)c1ccccn1` (stereo not given), the T/C runs as follows: (dose: 3.12 mg/kg/injection, schedule: Q04DX003 (ip), vehicle: saline with Tween-80) 102 % of control; (dose: 12.5 mg/kg/injection, schedule: Q04DX003 (ip), vehicle: saline with Tween-80) 114 % of control.
Take `COc1cc2c(cc1OC)-c1cc3cc(OC)c(OC)cc3c(C)[n+]1CC2`: the T/C was 106 % of control under setting [8]; 106 % of control under setting [9]; 113 % of control (dose: 50.0 mg/kg/injection, schedule: Q01DX009 (ip), vehicle: Klucel (hydroxypropylcellulose) (HPC)).
